Laboratory results as given in patent US12551500B2, “C6′-substituted locked nucleic acid-modified cap analog and use thereof” (Hangzhou Tianlong Pharmaceutical Co., Ltd., priority 2024, dated 2026).

Key:
[1] = Characterization of lipid nanoparticles encapsulating Fluc-mRNA; format: physicochemical; settings: for Particle size: LNP (YK-009/DSPC/cholesterol/DMG-PEG2000) encapsulating Fluc-mRNA transcribed using the cap analog; for PDI: LNP encapsulating Fluc-mRNA transcribed using the cap analog; for EE: encapsulation efficiency of LNP encapsulating Fluc-mRNA transcribed using the cap analog
Protocol: Cationic lipid YK-009 (Beijing Youcare Kechuang Pharmaceutical Technology Co., Ltd.), DSPC (AVT (Shanghai) Pharmaceutical Technology Co., Ltd.), cholesterol (AVT (Shanghai) Pharmaceutical Technology Co., Ltd.), and DMG-PEG2000 were dissolved in ethanol at a molar ratio of 49:10:39.5:1.5, and the mRNA was diluted in 50 mM citrate buffer (pH=4). The ethanol lipid solution was mixed with the Fluc-mRNA aqueous solution prepared from different cap structures at a volume ratio of 1:3 using a microfluidic device at a flow rate of 10 mL/min to prepare LNPs at a weight ratio of total lipid to mRNA of approximately 15:1. The resulting liposomes were diluted to 10-fold volume with PBS, and then ultrafiltered with a 300 KDa ultrafiltration tube to remove ethanol. The volume was then fixed to a certain volume with PBS. Finally, the LNPs were filtered through a 0.2 μm sterile filter to obtain an LNP preparation encapsulating Fluc-mRNA using YK-009/DSPC/cholesterol/DMG-PEG2000 (at a molar ratio of 49:10:39.5:1.5).
The particle size and polydispersity index (PDI) were determined by dynamic light scattering using a Malvern laser particle size analyzer. 10 μL of the liposome solution was taken, diluted to 1 mL with RNase-free deionized water, and added to a sample pool. Each sample was measured in triplicate. The measurement conditions were: a scattering angle of 90° and a temperature of 25° C. The encapsulation efficiency of LNPs was determined using the Quant-iT RiboGreen RNA Quantification Kit (Thermo Fisher Scientific, UK) according to the manufacturer's instructions.

[2] = target: T1, DCP2 enzyme (Schizosaccharomyces pombe, UniProt O13828); experiment: Decapping enzyme stability test; format: biochemical; settings: for Decapping rate (%) of DCP2 enzyme: 30 pmol RNA, 50 U mRNA decapping enzyme, 37° C., 45 minutes; for decapping rate lower than that of HN3002: difference to HN3002; for decapping rate lower than that of N-7413: difference to N-7413; for decapping rate lower than that of YK-CAP-001: difference to YK-CAP-001; for decapping rate lower than that of YK-CAP-002: difference to YK-CAP-002; for decapping rate lower than that of compound 14: difference to compound 14; for decapping rate lower than that of m6A: difference to m6A
T1 construct: purchased New England Biolabs
T1 sequence (O13828 1-243 limits assumed): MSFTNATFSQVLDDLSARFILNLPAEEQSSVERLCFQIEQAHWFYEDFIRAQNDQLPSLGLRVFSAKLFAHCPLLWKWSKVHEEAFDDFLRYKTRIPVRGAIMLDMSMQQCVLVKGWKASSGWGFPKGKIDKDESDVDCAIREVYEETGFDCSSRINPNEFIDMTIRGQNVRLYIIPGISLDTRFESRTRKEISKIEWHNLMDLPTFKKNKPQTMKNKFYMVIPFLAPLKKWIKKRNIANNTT
T1 sequence (Q9P805 1-127 partner): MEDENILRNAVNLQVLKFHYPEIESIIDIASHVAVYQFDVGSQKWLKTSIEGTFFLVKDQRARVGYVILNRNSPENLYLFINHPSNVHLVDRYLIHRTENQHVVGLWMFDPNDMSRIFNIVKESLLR
T1 sequence (Q10108 155-180 partner limits assumed): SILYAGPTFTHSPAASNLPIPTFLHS
Protocol: 30 pmol of RNAs purified by polyacrylamide gel electrophoresis (PAGE) was subjected to an enzymatic reaction with 50 U of mRNA decapping enzyme (New England Biolabs) and 1×MDE buffer at 37° C. for 45 minutes. The enzymatic reactants were subjected to PAGE and stained with SYBR Green II (Lonza), followed by observation of the post-electrophoresis gel image on a Typhoon FLA 7000 (GE Healthcare) instrument. The electrophoresis band intensity ratio of RNA capping to RNA decapping was counted using ImageQuant (GE Healthcare) software, and the decapping rate of the decapping enzyme was calculated (as shown in Table 6).

[3] = test system: HEK293T cells; experiment: Translation efficiency of capped luciferase mRNAs; format: cell-based; settings: for relative fluorescence intensity, times that of HN3002: ratio to HN3002; for relative fluorescence intensity, times that of N-7413: ratio to N-7413; for relative fluorescence intensity, times that of YK-CAP-001: ratio to YK-CAP-001; for relative fluorescence intensity, times that of YK-CAP-002: ratio to YK-CAP-002; for relative fluorescence intensity, times that of m6A: ratio to m6A
Protocol: (1) HEK293T cells were cultured in DMEM medium containing 10% FBS and penicillin/streptomycin at 37° C. with 5% CO2.
(2) Cells in the culture dish were digested and counted, then spread in a 96-well plate at 10,000 cells per well, and cultured overnight until the cells adhered to the wall.
(3) When the cell density reached approximately 80%, transfection was performed by adding 0.5 μg of mRNA sample and Lipofectamine MessengerMAX Transfection Reagent (Invitrogen) per well according to the manufacturer's instructions.
(4) After the transfected cells were cultured at 37° C. with 5% CO2 for 24 hours, the growth medium was removed from the cells to be tested, and the cells were rinsed with PBS. After centrifugation to remove PBS, 50 μL of 1× lysis buffer was added. The cells and all liquid were transferred to a microcentrifuge tube and centrifuged.
(5) 20 μL of sample was taken and added to 100 μL of Dual-Lumi™ II Luciferase Assay Reagent pre-equilibrated to room temperature, and mixed appropriately.
(6) The mixture was incubated at room temperature (approximately 25° C.) for 5 minutes to stabilize the luminescence signal. Chemiluminescence was detected using a multifunctional microplate reader with a function for detecting chemiluminescence, and the data were recorded.

| SMILES | Particle size [1] | PDI [1] | EE [1] | Decapping rate (%) of DCP2 enzyme [2] | decapping rate lower than that of HN3002 [2] | decapping rate lower than that of N-7413 [2] | decapping rate lower than that of YK-CAP-001 [2] | decapping rate lower than that of YK-CAP-002 [2] | decapping rate lower than that of compound 14 [2] | decapping rate lower than that of m6A [2] | relative fluorescence intensity, times that of HN3002 [3] | relative fluorescence intensity, times that of N-7413 [3] | relative fluorescence intensity, times that of YK-CAP-001 [3] | relative fluorescence intensity, times that of YK-CAP-002 [3] | relative fluorescence intensity, times that of m6A [3] |
| --- | --- | --- | --- | --- | --- | --- | --- | --- | --- | --- | --- | --- | --- | --- | --- |
| COC1C(OP(=O)([O-])OC[C@H]2O[C@@H](n3cnc4c(=O)[nH]c(N)nc43)C(O)C2O)[C@@H](COP(=O)(O)OP(=O)(O)OP(=O)(O)OC[C@]23O[C@@H]([n+]4cn(C)c5c(=O)[nH]c(N)nc54)C(O[C@H]2CC(=O)N(C)C)C3O)O[C@H]1n1cnc2c(N)ncnc21 (stereo partly drawn) [YK-CAP-003] | 82.83 nm | 0.032 | 95.6% | 11.8% | 11.4% | 36.8% | 14.5% | 12.8% | 17.0% | 15.7% | 1.1 times | 1.2 times | 1.6 times | 1.8 times | 3.5 times |
| COC1C(OP(=O)([O-])OC[C@H]2O[C@@H](n3cnc4c(=O)[nH]c(N)nc43)C(O)C2O)[C@@H](COP(=O)(O)OP(=O)(O)OP(=O)(O)OC[C@]23O[C@@H]([n+]4cn(C)c5c(=O)[nH]c(N)nc54)C(O[C@H]2CC(F)F)C3O)O[C@H]1n1cnc2c(N)ncnc21 (stereo partly drawn) [YK-CAP-004] | 89.39 nm | 0.065 | 93.7% | 10.3% | 12.9% | 38.3% | 16.0% | 14.3% | 18.5% | 17.2% | 1.2 times | 1.4 times | 1.8 times | 2.0 times | 4.0 times |
| COC1C(OP(=O)([O-])OC[C@H]2O[C@@H](n3cnc4c(=O)[nH]c(N)nc43)C(O)C2O)[C@@H](COP(=O)(O)OP(=O)(O)OP(=O)(O)OC[C@]23O[C@@H]([n+]4cn(C)c5c(=O)[nH]c(N)nc54)C(O[C@H]2CCS(C)(=O)=O)C3O)O[C@H]1n1cnc2c(N)ncnc21 (stereo partly drawn) [YK-CAP-005] | 87.01 nm | 0.064 | 94.5% | 12.8% | 10.4% | 35.8% | 13.5% | 11.8% | 16.0% | 14.7% | 1.1 times | 1.3 times | 1.6 times | 1.9 times | 3.7 times |
| COC1C(OP(=O)([O-])OC[C@H]2O[C@@H](n3cnc4c(=O)[nH]c(N)nc43)C(O)C2O)[C@@H](COP(=O)(O)OP(=O)(O)OP(=O)(O)OC[C@]23O[C@@H]([n+]4cn(C)c5c(=O)[nH]c(N)nc54)C(O[C@H]2CCS(=O)(=O)N(C)C)C3O)O[C@H]1n1cnc2c(N)ncnc21 (stereo partly drawn) [YK-CAP-006] | 96.64 nm | 0.029 | 96.3% | 11.2% | 12.0% | 37.4% | 15.1% | 13.4% | 17.6% | 16.3% | 1.2 times | 1.3 times | 1.7 times | 1.9 times | 3.7 times |
